The source of these data is patent US20210137853A1, “METHODS OF TREATING EPILEPTIC PATIENTS WITH FENFLURAMINE” (Zogenix International Limited, priority 2019, published 2021).

“And” between values parts separate entries of the source, which are not always exact repeats. Equal values may be shown once. Read-outs that look alike come from different tables or passages of the source.

Usually Ki stands for the dissociation constant of the complex between target and ligand, obtained from inhibition or displacement.

Series [1] concerns Maximal Electroshock (MES) model of acute generalized tonic clonic seizures. In words: MES test of fenfluramine (FFA) alone, dose and time range. Format: in vivo, mouse. An excerpt:
Results are depicted in Table 6 below.

The test system is the same in series [2]. Nature of the series: MES test of fenfluramine in combination with serotonergic inhibitors. Conditions: for Activity in MES model in presence of FFA (animals protected): Table 7, compound combined with 3 mg/kg FFA; for Impaired (I/F) / Protected (N/F): compound IP at Table 5 dose and time of test, with fenfluramine 3 mg/kg IP 4 hr pre-test; for effect on FFA anti-seizure activity in MES model (in words): summary of Table 7.
Method: Specifically, the present example describes characterization of anticonvulsant effects of fenfluramine when administered in combination with various other compounds using a murine model of seizures: a Maximal Electroshock (IVIES) model. Maximal Electroshock (IVIES) is a model of acute generalized tonic clonic seizures. Induction of seizures is caused by 60 Hz 0.2 second alternating 50 mA current in the mouse. Tonic hindlimb extensions are measured to assess seizures or seizure protection.
So, for example, a compound with a 1 hour time of peak activity would be administered 3 hours after FEN administration in the study design.

In series [3] the target is 5-HT1D (Homo sapiens, UniProt P28221). Conditions: Table 4, cited from earlier work; for Ki: values from ChemBL, PDSP or DrugBank.ca and literature.
Series [4] deals with T1, 5-HT1A (Homo sapiens, UniProt P08908).
T1 sequence (P08908 1-422): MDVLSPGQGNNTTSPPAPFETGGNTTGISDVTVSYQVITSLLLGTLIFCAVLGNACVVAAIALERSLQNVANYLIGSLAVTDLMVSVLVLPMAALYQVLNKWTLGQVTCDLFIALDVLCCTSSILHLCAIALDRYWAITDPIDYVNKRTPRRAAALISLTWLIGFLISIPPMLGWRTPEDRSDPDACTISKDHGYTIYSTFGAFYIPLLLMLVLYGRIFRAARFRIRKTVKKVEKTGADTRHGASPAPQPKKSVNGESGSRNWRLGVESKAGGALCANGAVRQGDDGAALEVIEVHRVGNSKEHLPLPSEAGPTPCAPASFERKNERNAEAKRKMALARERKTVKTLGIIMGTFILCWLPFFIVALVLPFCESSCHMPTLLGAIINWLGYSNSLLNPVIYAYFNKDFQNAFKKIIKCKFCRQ
Conditions: cited from earlier work; for Ki: values from ChemBL, PDSP or DrugBank.ca and literature.

In series [5] the target is 5-HT1B (Homo sapiens, UniProt P28222). Conditions: cited from earlier work.
The target of series [6] is T2, 5-HT2C (Homo sapiens, UniProt P28335).
T2 sequence (P28335 33-458): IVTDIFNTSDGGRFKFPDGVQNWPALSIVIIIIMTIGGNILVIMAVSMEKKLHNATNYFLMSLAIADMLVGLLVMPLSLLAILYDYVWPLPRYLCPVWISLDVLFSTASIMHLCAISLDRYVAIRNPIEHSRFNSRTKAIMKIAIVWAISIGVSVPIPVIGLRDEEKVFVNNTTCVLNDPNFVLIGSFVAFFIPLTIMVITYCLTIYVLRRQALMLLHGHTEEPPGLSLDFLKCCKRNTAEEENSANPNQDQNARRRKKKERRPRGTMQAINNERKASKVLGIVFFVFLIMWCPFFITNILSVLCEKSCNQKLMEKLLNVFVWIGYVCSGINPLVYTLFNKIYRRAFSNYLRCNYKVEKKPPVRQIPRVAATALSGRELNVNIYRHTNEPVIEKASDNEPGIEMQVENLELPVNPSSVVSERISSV
Conditions: Table 4; values from ChemBL, PDSP or DrugBank.ca and literature; cited from earlier work.

The subject of series [7] is Dravet syndrome seizures. Conditions: supplemented with clobazam and valproate; cited from earlier work.
Series [8] concerns the target 5-HT2A (Homo sapiens, UniProt P28223). Conditions: Table 4; values from ChemBL, PDSP or DrugBank.ca and literature; cited from earlier work.
The test system of series [9] is MES test. Conditions: cited from earlier work.
Setting [10] is: fenfluramine 3 mg/kg IP plus vehicle (VEH) only.
[11] abbreviates: 50% inhibition of specific binding, Moser et al. 1990.

Sequence of 5-HT1D (P28221 whole entry, species assumed): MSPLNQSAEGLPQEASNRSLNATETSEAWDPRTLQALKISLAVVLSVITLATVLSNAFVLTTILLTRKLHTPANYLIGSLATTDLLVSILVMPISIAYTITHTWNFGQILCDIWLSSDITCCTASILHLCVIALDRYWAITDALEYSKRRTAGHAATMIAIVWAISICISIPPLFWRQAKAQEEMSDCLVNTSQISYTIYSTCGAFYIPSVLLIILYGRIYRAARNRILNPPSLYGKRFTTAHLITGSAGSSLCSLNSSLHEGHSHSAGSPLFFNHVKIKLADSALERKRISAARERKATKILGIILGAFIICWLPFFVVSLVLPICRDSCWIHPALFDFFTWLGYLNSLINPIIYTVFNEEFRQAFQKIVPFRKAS
Sequence of 5-HT1B (P28222 whole entry, species assumed): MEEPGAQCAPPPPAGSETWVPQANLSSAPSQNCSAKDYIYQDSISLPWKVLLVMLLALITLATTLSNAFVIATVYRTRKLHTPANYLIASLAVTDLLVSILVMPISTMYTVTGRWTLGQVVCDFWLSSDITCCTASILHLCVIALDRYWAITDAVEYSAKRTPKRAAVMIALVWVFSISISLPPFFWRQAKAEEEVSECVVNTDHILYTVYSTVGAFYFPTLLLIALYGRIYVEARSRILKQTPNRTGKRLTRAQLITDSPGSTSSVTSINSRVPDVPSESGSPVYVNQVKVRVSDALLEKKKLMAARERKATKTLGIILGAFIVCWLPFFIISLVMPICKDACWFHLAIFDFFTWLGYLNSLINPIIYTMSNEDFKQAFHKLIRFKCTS
Sequence of 5-HT2A (P28223 whole entry): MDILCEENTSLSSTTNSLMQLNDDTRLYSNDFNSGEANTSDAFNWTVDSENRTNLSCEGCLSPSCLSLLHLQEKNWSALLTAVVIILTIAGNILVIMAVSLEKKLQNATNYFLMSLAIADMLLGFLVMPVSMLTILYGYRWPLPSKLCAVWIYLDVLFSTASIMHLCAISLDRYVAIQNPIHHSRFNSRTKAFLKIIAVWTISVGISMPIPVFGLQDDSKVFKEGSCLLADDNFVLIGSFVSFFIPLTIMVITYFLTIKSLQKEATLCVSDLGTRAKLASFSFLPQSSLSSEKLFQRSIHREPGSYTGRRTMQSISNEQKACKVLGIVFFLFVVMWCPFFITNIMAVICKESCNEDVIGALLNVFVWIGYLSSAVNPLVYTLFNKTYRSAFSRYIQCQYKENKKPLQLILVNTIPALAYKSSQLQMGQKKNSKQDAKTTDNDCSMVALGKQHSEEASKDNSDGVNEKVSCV

With `CCNC(C)Cc1cccc(C(F)(F)F)c1` (racemic) [Fenfluramine, (RS)—N-ethyl-1-[3-(trifluoromethyl)phenyl]propan-2-amine], the “Activity in MES model: FFA protected” value in series [1] (2.5 mg/kg IP, 4 hr pre-MES, SOW #1 MES Quantification) is “FFA protected = 3/4”; in series [1] (3 mg/kg IP, 2 hr pre-MES, SOW #1 MES Identification), “FFA protected = 3/4”; in series [1] (3 mg/kg, 4 hr pre-MES, SOW #2 (-) control) it was “FFA protected = 4/8”; in series [1] (3 mg/kg, 4 hr pre-MES, SOW #3 (-) control), “FFA protected = 5/8”; in series [1] (5 mg/kg IP, 4 hr pre-MES, SOW #1 MES Quantification), “FFA protected = 6/8”; in series [1] (10 mg/kg IP, 2 hr pre-MES, SOW #1 MES Time Course), “FFA protected = 3/4”. Further, the “Activity in MES model: FFA protected” value in series [1] (10 mg/kg IP, 4 hr pre-MES, SOW #1 MES Quantification) is listed as “FFA protected = 8/8”; in [1] (10 mg/kg IP, 4 hr pre-MES, SOW #1 MES Time Course), “FFA protected = 4/4”. Further, in [1] (3 mg/kg FFA), the “animals protected in the MES assay” value is recorded as 50-60%. Further, the “protection in the MES model” value in series [1] (10 mg/kg FFA) amounted to 100%. The “Impaired (I/F)” value in [1] (setting [10]) is on record as 0/8. In series [1] (setting [10]), the “Protected (N/F)” value was 4/8 and 5/8.
Consider `OC(CN1CCN(c2cccc(Cl)c2)CC1)C(c1ccccc1)c1ccccc1` (stereo not drawn) [BRL 15572], for which, in series [2], the “Activity in MES model in presence of FFA (animals protected)” value (“Activity in MES model in presence of FFA” for short) was “FFA reduced protection = 1/8”, the “Impaired (I/F)” value is reported as 0/8, the “Protected (N/F)” value is 1/8 and the “effect on FFA anti-seizure activity in MES model (in words)” value (shortened to “effect on FFA anti-seizure activity”) is recorded as “appear to block FFA anti-seizure activity”. Besides, the “pKi 5-HT1D” value in series [3] is 7.9. The “pKi 5-HT1A” value in [4] (Table 4) is given as 7.7.
For `O=C1CC2(CCCC2)CC(=O)N1CCNCC1COc2ccccc2O1` (stereo not drawn) [Binospirone], the “pIC50 5-HT1B” value in [5] (setting [11]) was 4.5. In addition, in [2], the “Activity in MES model in presence of FFA” value is on record as “FFA protected = 3/8”, the “Impaired (I/F)” value was 0/8 and the “Protected (N/F)” value is listed as 3/8. The “pIC50 5-HT1A” value in series [4] (setting [11]) is reported as 8.6.
Take `NC(=O)N1c2ccccc2C=Cc2ccccc21` [Carbamazepine]: in series [2], the “Activity in MES model in presence of FFA” value is on record as “Protected = 8/8”, the “Impaired (I/F)” value is given as 0/8, the “Protected (N/F)” value is reported as 8/8 and the “effect on FFA anti-seizure activity” value is given as “no interference was observed”.
Consider `CN(C)CCCN1c2ccccc2Sc2ccc(Cl)cc21` [Chlorpromazine], for which, in series [2], the “Activity in MES model in presence of FFA” value is “FFA protected = 5/8”, the “Protected (N/F)” value was 5/8 and the “effect on FFA anti-seizure activity” value is recorded as “do not block FFA anti-seizure activity”. Also, the Ki in [3] is 452 nM.
Regarding `CN1CCN(C2=Nc3cc(Cl)ccc3Nc3ccccc32)CC1` [Clozapine], in series [2], the “Activity in MES model in presence of FFA” value is “FFA reduced protection = 1/8” and the “effect on FFA anti-seizure activity” value is given as “appear to block FFA anti-seizure activity”.
As for `CN1CCN(C2=Nc3ccccc3Oc3ccc(Cl)cc32)CC1` [Loxapine], the Ki in series [5] (Table 4, values from ChemBL, PDSP or DrugBank.ca and literature) is 388 nM; in series [6], 9.5 to 21 nM; in series [3] it was 3470 nM; in series [4] (Table 4), 2460 nM.
For `Clc1ccc2c(c1)N=C(N1CCNCC1)c1ccccc1N2` [N-desmethyl-clozapine, N-desmethylclozapine], in series [2], the “Activity in MES model in presence of FFA” value is reported as “FFA reduced protection = 1/8”, the “Impaired (I/F)” value was 0/8, the “Protected (N/F)” value is recorded as 1/8 and the “effect on FFA anti-seizure activity” value is listed as “appear to block FFA anti-seizure activity”. Also, the Ki in series [6] was 4.8 nM. Moreover, in series [3], the Ki is 130 nM. Further, the Ki in series [4] (Table 4) is 160 nM.
Regarding `O=c1[nH]c2ccccc2n1C1CCN(CCCC(c2ccc(F)cc2)c2ccc(F)cc2)CC1` [Pimozide], in series [2], the “Activity in MES model in presence of FFA” value is recorded as “FFA protected = 3/8”, the “Protected (N/F)” value is given as 3/8 and the “effect on FFA anti-seizure activity” value was “do not block FFA anti-seizure activity”. Also, in [3], the Ki was 3100 nM.
Take `CC(C)NCC(O)COc1cccc2[nH]ccc12` (stereo not drawn) [Pindolol]: in [2], the “Activity in MES model in presence of FFA” value is reported as “FFA protected = 5/8”, the “Protected (N/F)” value is given as 5/8 and the “effect on FFA anti-seizure activity” value is “do not block FFA anti-seizure activity”. In addition, the Ki in [3] was 4900 nM.
Turning to `CC(C)(C)C(O)/C=C/c1ccc2c(c1)OCO2` (stereo not drawn) [Stiripentol, stiripentol], in [7], the “reduction of overall seizure rate” value was 70%.
Consider `CN1CC2c3ccccc3Oc3ccc(Cl)cc3C2C1` (stereo not drawn) [asenapine], for which the “Activity in MES model in presence of FFA” value in series [2] is “FFA reduced protection = 2/8”. Moreover, the “Impaired (I/F)” value in series [2] is on record as 0/8. Also, the “Protected (N/F)” value in series [2] was 2/8. Besides, the Ki in series [6] is 0.27 nM; in series [3] it was 10.2 nM; in [8], 0.77 nM; in [4] (Table 4) it was 15 nM.
For `CN(C)CCCN1c2ccccc2CCc2ccc(Cl)cc21` [clomipramine], in series [2], the “Activity in MES model in presence of FFA” value was “FFA protected = 7/8”, the “Impaired (I/F)” value was 0/8, the “Protected (N/F)” value is listed as 7/8 and the “effect on FFA anti-seizure activity” value is “do not block FFA anti-seizure activity”. In [6], the Ki is 64.6 nM.
On to `CN(C)CCC=C1c2ccccc2COc2ccccc21` [doxepin], for which, in series [2], the “Activity in MES model in presence of FFA” value is reported as “FFA protected = 7/8”, the “Protected (N/F)” value is on record as 7/8 and the “effect on FFA anti-seizure activity” value is reported as “do not block FFA anti-seizure activity”. Besides, in series [9] (0.25 hr post-administration), the “ED50 in MES test” value was 8.2 mg/kg. Further, the “ED50 in MES test” value in series [9] (IP, at TPE of 5 min) is recorded as 6.6 mg.
In the case of `CN1CCN2c3ccccc3Cc3ccccc3C2C1` (stereo not drawn) [mianserin], in series [2], the “Activity in MES model in presence of FFA” value was “FFA reduced protection = 2/8”, the “Impaired (I/F)” value was 0/8 and the “Protected (N/F)” value is recorded as 2/8.
On to `OCCN1CCN(CCCN2c3ccccc3Sc3ccc(Cl)cc32)CC1` [perphenazine], for which, in [2], the “Activity in MES model in presence of FFA” value is “FFA reduced protection = 2/8” and the “Protected (N/F)” value was 2/8.
